Experimental data as given in patent publication US10202658B2, “Methods for determining hypersusceptibility of HIV-1 to non-nucleoside reverse transcriptase inhibitors” (Monogram Biosciences, Inc., priority 2005, dated 2019).

Assays:
Type in all cases: cell-based
[1] = test system: HIV-1, RT mutations: 184V; experiment: PhenoSense resistance test vector assay, clinical isolates with 184V; settings: share of samples designated hypersusceptible
Protocol: (§1) In preferred embodiments, the phenotypic analysis of NNRTI hypersusceptibility is performed using PHENOSENSE™ (ViroLogic Inc., South San Francisco, Calif.). See Petropoulos et al., 2000, Antimicrob. Agents Chemother. 44:920-928; U.S. Pat. Nos. 5,837,464 and 6,242,187. PHENOSENSE™ is a phenotypic assay that achieves the benefits of phenotypic testing and overcomes the drawbacks of previous assays. Because the assay has been automated, PHENOSENSE™ provides high throughput methods under controlled conditions for determining NNRTI resistance, susceptibility, or hypersusceptibility of a large number of individual viral isolates.
(§2) The assay can be performed by first co-transfecting host cells with RTV DNA and a plasmid that expresses the envelope proteins of another retrovirus, for example, amphotropic murine leukemia virus (MLV). Following transfection, viral particles can be harvested from the cell culture and used to infect fresh target cells in the presence of varying amounts of anti-viral drug(s). The completion of a single round of viral replication in the fresh target cells can be detected by the means for detecting replication contained in the vector. In a preferred embodiment, the completion of a single round of viral replication results in the production of luciferase. By monitoring the amount of, e.g., luciferase activity in the presence of the varying amounts of antiviral drug(s), a resistance curve can be constructed by plotting luciferase activity versus drug concentration. The susceptibility of an HIV, or population of HIV, can be determined by measuring the concentration of antiviral drug at which the luciferase activity detected is half-maximal. This number, the IC50, provides a standard and convenient measure of drug resistance.
(§3) Patient-derived segment(s) corresponding to the HIV protease and reverse transcriptase coding regions were amplified by the reverse transcription-polymerase chain reaction method (RT-PCR) using viral RNA isolated from viral particles present in the plasma or serum of HIV-infected individuals as follows. […]

[2] = test system: HIV-1, RT mutations: T215Y and 2 TAMs and V118I; experiment: PhenoSense resistance test vector assay, clinical isolates with T215Y and 2 TAMs and V118I; settings: share of samples designated hypersusceptible
Protocol: as §1, §2, §3

[3] = test system: HIV-1, RT mutations: T215Y and 2 TAMs and V118 wt; experiment: PhenoSense resistance test vector assay, clinical isolates with T215Y and 2 TAMs and V118 wt; settings: share of samples designated hypersusceptible
Protocol: as §1, §2, §3

[4] = test system: HIV-1, RT mutations: K70R and 2 TAMs; experiment: PhenoSense resistance test vector assay, clinical isolates with K70R and 2 TAMs; settings: share of samples designated hypersusceptible
Protocol: as §1, §2, §3

[5] = test system: HIV-1, RT mutations: T215Y and 2 TAMs and H208 wt; experiment: PhenoSense resistance test vector assay, clinical isolates with T215Y and 2 TAMs and H208 wt; settings: share of samples designated hypersusceptible
Protocol: as §1, §2, §3

[6] = test system: HIV-1, RT mutations: 2 NAMs; experiment: PhenoSense resistance test vector assay, clinical isolates with 2 NAMs; settings: share of samples designated hypersusceptible
Protocol: as §1, §2, §3

[7] = test system: HIV-1 NL4-3 SDM, M184V in reverse transcriptase; experiment: NNRTI susceptibility of site-directed mutant (SDM) bearing only M184V in NL4-3 background; settings: mean+/-SD of 17 replicates, p<0.00001 versus reference
Protocol: as §1
as §2, with “By monitoring the amount of, e.g., luciferase activity in the presence of the varying amounts of antiviral drug(s), a resistance curve can be constructed by plotting luciferase activity versus drug concentration.” left out, “This number, the IC50, provides a standard and convenient measure of drug resistance.” left out
(§4) Resistance tests were carried out with resistance test vectors using two host cell types. […] The resistance test vector viral particles were then used to infect a second host cell (the target host cell) in which the expression of the indicator gene is measured.
(§5) The amount of luciferase activity detected in infected cells is used as a direct measure of “infectivity,” i.e., the ability of the virus to complete a single round of replication. Thus, drug resistance or sensitivity can be determined by plotting the amount of luciferase activity produced by patient derived viruses in the presence of varying concentrations of the antiviral drug. […]

[8] = test system: HIV-1, RT mutations: None; experiment: PhenoSense resistance test vector assay, clinical isolates without NRTI, NNRTI or PI mutations (WT reference group); settings: share of samples designated hypersusceptible
Protocol: as §1, §2, §3

[9] = test system: HIV-1 NL4-3 SDM, L74V in reverse transcriptase; experiment: NNRTI susceptibility of site-directed mutant (SDM) containing L74V in NL4-3 background; settings: relative to NL4-3
Protocol: as §1
as §2, with “By monitoring the amount of, e.g., luciferase activity in the presence of the varying amounts of antiviral drug(s), a resistance curve can be constructed by plotting luciferase activity versus drug concentration.” left out, “This number, the IC50, provides a standard and convenient measure of drug resistance.” left out
as §4, §5

[10] = test system: HIV-1, RT mutations: 69X; experiment: PhenoSense resistance test vector assay, clinical isolates with 69X; settings: share of samples designated hypersusceptible
Protocol: as §1, §2, §3

Compound | % IC50 0.4 fold < WT [1] [%] | % IC50 0.4 fold < WT [2] [%] | % IC50 0.4 fold < WT [3] [%] | % IC50 0.4 fold < WT [4] [%] | % IC50 0.4 fold < WT [5] [%] | % IC50 0.4 fold < WT [6] [%] | FC (fold change in IC50) [7] | % IC50 0.4 fold < WT [8] [%] | FC (fold change in IC50) [9] | % IC50 0.4 fold < WT [10] [%]
CC(C)Nc1cccnc1N1CCN(C(=O)c2cc3cc(NS(C)(=O)=O)ccc3[nH]2)CC1 [DLV, delavirdine] | 12.3 | 63.8 | 83.9 | 15.7 | 68.7 | 30.1 | 0.65+/−0.05 | 4.9 | 0.68+/−0.06 | 13.2
O=C1Nc2ccc(Cl)cc2[C@@](C#CC2CC2)(C(F)(F)F)O1 [EFV, efavirenz] | 16.9 | 39.6 | 78.1 | 31.0 | 55.1 | 39.8 | 0.65+/−0.03 | 4.2 | 0.67+/−0.02 | 19.8
Cc1ccnc2c1NC(=O)c1cccnc1N2C1CC1 [NVP, nevirapine] | 16.3 | 27.1 | 37.5 | 36.9 | 34.8 | 39.8 | 0.67+/−0.05 | 8.1 | 0.59+/−0.06 | 20.8
